Data from ChEMBL document CHEMBL5726139, “Heterocyclic compounds and methods of their use” (2017).
pIC50: −log10 of the molar value.

target: T1, Type-2 angiotensin II receptor (Homo sapiens, UniProt P50052); assay: Receptor Binding Assay: 120 μL membrane ([…]) was incubated with 15 μL of [125I]-CGP42112A and 15 μL of compound at RT for 1.5 hrs. The binding reaction was stopped by rapid filtration through Unifilter GF/C plates (presoaked in 0.3% (v:v) BSA). Plate was washed three times with ice cold wash buffer. The filtration plates were dried at 37° C. overnight. 50 μL of scintillation cocktail was added to each well. Radioactivity was determined using MicroBetaTriluxmicroplate scintillation counter.
T1 sequence (P50052 whole entry): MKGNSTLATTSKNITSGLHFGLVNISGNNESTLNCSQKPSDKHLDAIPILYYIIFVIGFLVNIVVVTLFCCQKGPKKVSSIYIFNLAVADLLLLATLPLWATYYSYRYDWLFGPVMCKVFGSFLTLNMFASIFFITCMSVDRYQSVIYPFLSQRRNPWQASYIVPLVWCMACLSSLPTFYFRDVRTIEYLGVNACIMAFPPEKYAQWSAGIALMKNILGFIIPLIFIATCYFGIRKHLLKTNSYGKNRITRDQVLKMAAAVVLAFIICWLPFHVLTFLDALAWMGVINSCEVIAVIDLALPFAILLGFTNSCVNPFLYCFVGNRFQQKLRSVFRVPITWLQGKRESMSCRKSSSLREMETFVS

Q: How did the pIC50 turn out when `CN(CCCc1ccc(F)cc1)[C@H]1C[C@@H](c2nnn[nH]2)N(C(=O)C(c2ccccc2)c2ccccc2)C1` was run?
A: 8.45

Q: `O=C(O)[C@@H]1C[C@H](NC(=O)N(c2ccccc2)c2ccccc2)CN1C(=O)C(c1ccccc1)c1ccccc1` was tested. Which pIC50 did it give?
A: 5.47

Q: With `CN(CCc1ccccc1)[C@H]1C[C@@H](C(=O)O)N(C(=O)C(c2ccccc2)c2ccccc2)C1` as the compound, how does the pIC50 read?
A: 6.42

Q: `O=C(C(c1ccccc1)c1ccccc1)N1C[C@H](OCCCc2ccccc2)[C@H]1CO` was tested. Which pIC50 did it give?
A: 5.69

Q: `CC(=O)N(CCCc1ccccc1)[C@H]1C[C@@H](C(=O)O)N(C(=O)C(c2ccccc2)c2ccccc2)C1` was tested. Which pIC50 did it give?
A: 6.62

Q: How did the pIC50 turn out when `O=C(C(c1ccccc1)c1ccccc1)N1C[C@@H](OCCCc2ccccc2)[C@H]1CO` was run?
A: 6.19
